Measurements reported in ChEMBL document CHEMBL1149014, “Antineoplastic agents, 118. Isolation and structure of bryostatin 9” (1986).
Converted amounts (≈) assume the structure as drawn.

How the values were obtained:
Type in all cases: functional
[1] = tested on: P388; assay: In vivo antitumor activity against mouse P388 cells at 46 to 185 ug/kg relative to control
[2] = tested on: P388; assay: Cytotoxicity against mouse P388 cells
[3] = tested on: P388; assay: In vivo antitumor activity against mouse P388 cells assessed as cell life extension at 80 ug/kg

Structure (SMILES)	T/C [1] [%]	ED50 [2] [×10⁻⁵ ug/ml]	Activity [3] [%]	EC50 ([2]; Mus musculus, P388, read-out: ED50 (the source's name)) [ng/mL]
CCCC(=O)O[C@H]1C[C@H]2C[C@@H](O)CC(=O)O[C@@H]([C@@H](C)O)C[C@@H]3C/C(=C\C(=O)OC)[C@H](OC(C)=O)[C@@](O)(O3)C(C)(C)/C=C/[C@H]3C/C(=C\C(=O)OC)C[C@@H](C[C@](O)(O2)C1(C)C)O3 [BRYOSTATIN 6]	139	1		
CCCC(=O)O[C@H]1/C(=C/C(=O)OC)C[C@H]2C[C@H]([C@@H](C)O)OC(=O)C[C@H](O)C[C@@H]3C[C@H](OC(C)=O)C(C)(C)[C@](O)(C[C@@H]4C/C(=C/C(=O)OC)C[C@H](/C=C/C(C)(C)[C@]1(O)O2)O4)O3 [BRYOSTATIN 9]			40	1.2 (≈ 1.41 nM)
